Experimental data taken from US5696108A, “Protein kinase C inhibitors” (Eli Lilly and Company, priority 1996, dated 1997).
Entries after “also recorded” stand apart in the source; their conditions may differ.

Legend:
[1] = from CN1C(=O)C(c2c[nH]c3ccccc23)=C(c2cn(CCCOC(CCI)CO[Si](c3ccccc3)(c3ccccc3)C(C)(C)C)c3ccccc23)C1=O; amine bond; cesium carbonate; DMF; 5.85 mM; 83.0 h
protein kinase C = conditions: literature; cited from earlier work
PKC eta = PKC eta (Homo sapiens, UniProt P24723); experiment: PKC Enzyme Assay, eta isozyme; assay type: biochemical; conditions: Table 2; read-out: Isozymes ED50 eta
Experimental: (§1) PKC enzymes=alpha, beta I, beta II, gamma, delta, epsilon, eta and zeta.
(§2) Assay components in a total volume of 250 μL are as follows:
(§3) For all the enzymes either histone type HL (Worthington) or myelin basic protein is used as substrate. The assay is started by addition of protein kinase C enzyme incubated at 30° C. for 10 minutes and stopped by adding 0.5 mL of cold trichloroacetic acid (Amresco) followed by 100 μL of 1 mg/mL bovine serum albumin (Sigma, St. Louis, Mo.). The precipitate is collected by vacuum filtration on glass fiber filters employing a TOMTEC™ filtration system and quantified by counting in a beta scintillation counter.

casein protein kinase II = molecular target: T1, casein protein kinase II (Rattus norvegicus, UniProt P19139); experiment: Casein Protein Kinase II Assay (CK-II); assay type: biochemical; conditions: Table 1
T1 construct: isolated from rat brain homogenate; from tissue; host or cells: rat brain homogenate
Experimental: Casein Protein Kinase II Assay (CK-II)
The Casein Protein Kinase II Assay is described in Neurochem. […] The assay components are in a total volume of 250 μL: 20 mM Tris-HCl, pH 7.5, 5 mM sodium fluoride, 50 mg/mL Casein (Sigma, St. Louis, Mo.), 10 mM magnesium chloride (Sigma, St. Louis, Mo.), 10 μL DMSO or DMSO/inhibitor and 30 μm (gamma-32P) ATP (DuPont). Initiation of the reaction is performed by addition of casein protein kinase II (isolated from rat brain homogenate), incubated at room temperature for 10 minutes and stopped by the addition of 0.5 mL ice cold Trichloroacetic acid (Amresco) followed by 100 μL of 1 mg/mL bovine serum albumin (Sigma, St. Louis, Mo.). The precipitate is collected by vacuum filtration on glass fiber filters and quantified by counting in a beta scintillation counter.
Assay components in order of addition
10 μL or DMSO or DMSO/inhibitor
25 μL of AT32P in 300 μM magnesium chloride
40 μL of enzyme (undiluted)
Buffer prepared as follows:
(Final volume=3.5 mL: amount of 20 assays)

[2] = molecular target: T2, cAMP-dependent kinase catalytic subunit (Bos taurus, UniProt P00517); experiment: cAMP-Dependent protein Kinase Catalytic Subunit Assay; assay type: biochemical, bovine; conditions: Table 1
T2 construct: purchased Sigma, St. Louis, Mo; host or cells: bovine heart
Experimental: cAMP-Dependent protein Kinase Catalytic Subunit Assay (PEA) The Assay components are in a total volume of 250 μL: 20 mM HEPES (Sigma, St. Louis, Mo.) buffer pH 7.5, 200 μg/mL histone type HL (Worthington), 10 mM magnesium chloride (Sigma, St. […] The reaction is initiated by addition of bovine heart cAMP-dependent kinase catalytic subunit (Sigma, St. Louis, Mo.), incubated to 30° C. for 10 minutes and stopped by adding 0.5 mL ice cold Trichloroacetic acid (Amresco) followed by 100 μL of 1 mg/mL bovine serum albumin (Sigma). The precipitate is collected by vacuum filtrated on glass fiber filters employing a TOMTEC™ and quantified by counting in a beta scintillation counter. This assay is done identical to the protein kinase C (PKC) enzyme assay except that no phospholipids or diacylglycerol are employed in the assay and the histone substrate is specific for the cAMP-dependent catalytic subunit enzyme.

PKC gamma = PKC gamma (Homo sapiens, UniProt P05129); experiment: PKC Enzyme Assay, gamma isozyme; assay type: biochemical; conditions: Table 2; read-out: Isozymes ED50 γ
Experimental: as §1, §2, §3

[3] = molecular target: calcium calmodulin dependent protein kinase; experiment: Calcium Calmodulin Dependent Protein Kinase Assay (CAM); assay type: biochemical, rat; conditions: Table 1
Experimental: Calcium Calmodulin Dependent Protein Kinase Assay (CAM)
The reaction is initiated by the addition of calcium calmodulin dependent protein kinase (isolated from rat brain homogenate), incubated at room temperature for 10 minutes and stopped by adding 0.5 mL ice cold trichloroacetic acid (Amresco) followed by 100 μL of 1 mg/mL bovine serum albumin (Sigma, St. Louis, Mo.). The precipitate is collected by vacuum filtration on glass fiber filters and quantified by counting in a beta scintillation counter.
25 μL calmodulin (250 μg/mL)
10 μL DMSO or DMSO/inhibitor

PKC-α = PKC-α (Homo sapiens, UniProt P17252); experiment: PKC Enzyme Assay, alpha isozyme; assay type: biochemical; conditions: Table 1
Experimental: as §1, §2, §3

PKC-β2 = PKC-β2 (Homo sapiens, UniProt P05771); experiment: PKC Enzyme Assay, beta-2 isozyme; assay type: biochemical; conditions: Table 1
Experimental: as §1, §2, §3

PKC-β1 = PKC-β1 (Homo sapiens, UniProt P05771); experiment: PKC Enzyme Assay, beta-1 isozyme; assay type: biochemical; conditions: Table 1
Experimental: as §1, §2, §3

src = molecular target: T3, src (Homo sapiens, UniProt P12931); experiment: Protein Tyrosine Kinase Assay (src); assay type: biochemical; conditions: Table 1
T3 construct: purchased Onogene Science, Inc. PK02 and PK03
Experimental: Protein Tyrosine Kinase Assay (src)
The Assay components are the following:
4 μL DMSO or DMSO/inhibitor

T1 sequence (P19139 whole entry): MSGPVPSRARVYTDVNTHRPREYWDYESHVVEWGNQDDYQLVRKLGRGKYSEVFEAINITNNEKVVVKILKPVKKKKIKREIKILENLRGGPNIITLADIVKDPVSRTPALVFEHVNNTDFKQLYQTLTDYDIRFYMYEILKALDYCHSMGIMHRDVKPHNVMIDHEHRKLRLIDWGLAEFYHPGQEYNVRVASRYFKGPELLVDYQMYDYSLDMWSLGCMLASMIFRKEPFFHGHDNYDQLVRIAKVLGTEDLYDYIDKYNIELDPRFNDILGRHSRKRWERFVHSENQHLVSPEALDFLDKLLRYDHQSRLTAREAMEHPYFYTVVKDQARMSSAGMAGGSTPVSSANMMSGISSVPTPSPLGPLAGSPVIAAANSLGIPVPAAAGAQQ
T1 sequence (P67874 2-215 partner limits assumed): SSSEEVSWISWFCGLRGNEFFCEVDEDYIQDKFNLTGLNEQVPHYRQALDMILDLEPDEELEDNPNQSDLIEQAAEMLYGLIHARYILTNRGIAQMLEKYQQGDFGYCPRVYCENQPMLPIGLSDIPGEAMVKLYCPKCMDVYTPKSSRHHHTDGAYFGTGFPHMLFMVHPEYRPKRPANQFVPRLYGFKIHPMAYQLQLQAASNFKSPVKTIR
Chain of PKC-β2 (P05771 1-673 isoform P05771-2): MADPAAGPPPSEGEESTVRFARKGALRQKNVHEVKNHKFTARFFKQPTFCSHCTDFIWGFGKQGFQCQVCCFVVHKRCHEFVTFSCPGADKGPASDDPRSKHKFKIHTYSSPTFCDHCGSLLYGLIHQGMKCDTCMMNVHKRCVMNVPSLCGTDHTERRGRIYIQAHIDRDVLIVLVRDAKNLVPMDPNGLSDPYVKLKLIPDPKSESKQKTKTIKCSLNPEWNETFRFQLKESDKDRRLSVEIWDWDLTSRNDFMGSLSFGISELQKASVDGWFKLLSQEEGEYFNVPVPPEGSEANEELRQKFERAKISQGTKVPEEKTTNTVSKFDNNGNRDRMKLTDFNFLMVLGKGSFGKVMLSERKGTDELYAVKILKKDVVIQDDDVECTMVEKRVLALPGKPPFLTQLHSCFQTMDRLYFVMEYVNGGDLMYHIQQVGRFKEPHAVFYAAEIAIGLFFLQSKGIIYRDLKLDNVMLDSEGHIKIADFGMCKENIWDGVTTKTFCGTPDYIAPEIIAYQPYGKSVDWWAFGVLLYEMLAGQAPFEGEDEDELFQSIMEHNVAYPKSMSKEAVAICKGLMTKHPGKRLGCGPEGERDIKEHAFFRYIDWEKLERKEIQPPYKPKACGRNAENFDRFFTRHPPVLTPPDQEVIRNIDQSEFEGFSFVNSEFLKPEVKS
T3 sequence (P12931 whole entry, species assumed): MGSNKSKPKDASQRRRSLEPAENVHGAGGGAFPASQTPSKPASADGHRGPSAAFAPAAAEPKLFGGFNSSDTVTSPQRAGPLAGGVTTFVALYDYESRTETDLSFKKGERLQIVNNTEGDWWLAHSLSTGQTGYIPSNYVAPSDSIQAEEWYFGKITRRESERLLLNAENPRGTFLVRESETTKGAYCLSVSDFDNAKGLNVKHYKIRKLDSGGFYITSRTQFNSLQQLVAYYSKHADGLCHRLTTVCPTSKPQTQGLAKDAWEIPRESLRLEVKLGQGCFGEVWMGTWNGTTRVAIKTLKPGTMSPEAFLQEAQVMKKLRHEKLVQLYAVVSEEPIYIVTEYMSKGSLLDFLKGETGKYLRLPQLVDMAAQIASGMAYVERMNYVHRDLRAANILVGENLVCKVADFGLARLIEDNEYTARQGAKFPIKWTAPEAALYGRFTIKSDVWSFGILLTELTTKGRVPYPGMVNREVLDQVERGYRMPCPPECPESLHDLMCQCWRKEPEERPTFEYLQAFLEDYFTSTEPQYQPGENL
Chain of PKC-β1 (P05771 whole entry): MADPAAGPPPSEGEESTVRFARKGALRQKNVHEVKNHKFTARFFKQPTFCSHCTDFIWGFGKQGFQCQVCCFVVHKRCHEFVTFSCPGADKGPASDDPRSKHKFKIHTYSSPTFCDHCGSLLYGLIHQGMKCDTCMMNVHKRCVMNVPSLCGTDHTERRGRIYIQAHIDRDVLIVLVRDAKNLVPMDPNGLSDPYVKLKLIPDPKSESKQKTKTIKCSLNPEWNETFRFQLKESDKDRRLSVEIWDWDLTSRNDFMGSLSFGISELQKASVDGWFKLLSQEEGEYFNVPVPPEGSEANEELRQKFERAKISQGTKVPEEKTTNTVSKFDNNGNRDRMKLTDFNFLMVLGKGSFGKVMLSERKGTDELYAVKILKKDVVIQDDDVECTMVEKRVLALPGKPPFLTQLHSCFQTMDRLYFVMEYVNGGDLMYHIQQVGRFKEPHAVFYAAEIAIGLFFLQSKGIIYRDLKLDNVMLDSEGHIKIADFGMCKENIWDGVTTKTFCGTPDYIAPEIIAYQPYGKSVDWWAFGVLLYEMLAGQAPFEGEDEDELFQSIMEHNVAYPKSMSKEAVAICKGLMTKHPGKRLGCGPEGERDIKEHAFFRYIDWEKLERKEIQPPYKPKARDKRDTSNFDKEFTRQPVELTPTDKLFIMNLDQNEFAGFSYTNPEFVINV
Chain of PKC eta (P24723 whole entry): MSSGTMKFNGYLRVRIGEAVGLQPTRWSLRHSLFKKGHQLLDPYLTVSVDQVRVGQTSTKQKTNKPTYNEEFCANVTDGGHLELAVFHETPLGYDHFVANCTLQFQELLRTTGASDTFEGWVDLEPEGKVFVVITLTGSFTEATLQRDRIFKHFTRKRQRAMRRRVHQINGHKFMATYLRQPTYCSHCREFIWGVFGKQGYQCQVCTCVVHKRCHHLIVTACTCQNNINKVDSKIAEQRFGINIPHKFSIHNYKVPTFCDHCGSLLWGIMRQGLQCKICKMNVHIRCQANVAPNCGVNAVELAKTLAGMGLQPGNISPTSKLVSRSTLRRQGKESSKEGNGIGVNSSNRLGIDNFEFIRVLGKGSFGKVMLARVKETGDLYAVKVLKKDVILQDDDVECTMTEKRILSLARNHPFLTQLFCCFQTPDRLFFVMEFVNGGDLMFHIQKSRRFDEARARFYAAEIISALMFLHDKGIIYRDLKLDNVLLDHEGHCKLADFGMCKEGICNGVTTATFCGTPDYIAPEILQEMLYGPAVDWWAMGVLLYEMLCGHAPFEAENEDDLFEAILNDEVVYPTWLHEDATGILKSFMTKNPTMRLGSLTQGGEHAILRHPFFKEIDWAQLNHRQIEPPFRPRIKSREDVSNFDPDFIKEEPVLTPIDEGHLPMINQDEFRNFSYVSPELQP

| SMILES | IC50 (casein protein kinase II) [µM] | IC50 [2] [µM] | IC50 [3] [µM] | IC50 (PKC-α) [µM] | IC50 (PKC-β2) [µM] | IC50 (PKC-β1) [µM] | IC50 (src) [µM] | ring closure, yield of all isomers [1] [%] | isozyme selectivity (protein kinase C) | IC50 (PKC eta) [µM] | IC50 (PKC gamma) [µM] |
| --- | --- | --- | --- | --- | --- | --- | --- | --- | --- | --- | --- |
| CN1C(=O)C2=C(C1=O)c1cn(c3ccccc13)CCC(CO[Si](c1ccccc1)(c1ccccc1)C(C)(C)C)OCCCn1cc2c2ccccc21 (stereo not drawn) |  |  |  |  |  |  |  | 97 |  |  |  |
| CN(C)CCCn1cc(C2=C(c3c[nH]c4ccccc34)C(=O)NC2=O)c2ccccc21 [3-[1-(3-dimethylaminopropyl)-indol-3-yl]-4-(1H-indol-3-yl)-1H-pyrrole-2,5-dione] |  |  |  |  |  |  |  |  | slight selectivity for the calcium dependent isozymes; also recorded: no difference, or possibly slight selectivity, for alpha over beta-1 and beta-2 isozymes |  |  |
| CN(C)CC1CCn2cc(c3ccccc32)C2=C(C(=O)NC2=O)c2cn(c3ccccc23)CCO1 (stereo not drawn) [Example 5] | > 100 | > 100 | 4 |  |  |  |  |  |  | 0.035 | 0.23 |
| CC(=O)OCC1CCCn2cc(c3ccccc32)C2=C(C(=O)NC2=O)c2cn(c3ccccc23)CC1 (stereo not drawn) [Example 38, 3,4-[(N,N'-1,1'-(3"-(acetoxy)methylene)-hexane)-bis-(3,3'-indolyl)]-1H-pyrrole-2,5-dione] | > 100 | > 100 | 9 | 4 | 0.1 | 0.2 | > 100 |  |  |  |  |
| O=C1NC(=O)C2=C1c1cn(c3ccccc13)CCCCCCCn1cc2c2ccccc21 [Example 42] | > 100 | > 100 | > 100 | > 100 | 0.6 | 0.5 | > 100 |  |  |  |  |
| O=C1NC(=O)C2=C1c1cn(c3ccccc13)CCCC1(CCCn3cc2c2ccccc23)OCCO1 [Example 48] | > 100 | > 100 | > 100 | > 100 | 0.3 | 0.5 | > 100 |  |  |  |  |

Continued, in another order:

| IC50 (casein protein kinase II) [µM] | IC50 [2] [µM] | IC50 [3] [µM] | IC50 (PKC-α) [µM] | IC50 (PKC-β2) [µM] | IC50 (PKC-β1) [µM] | IC50 (src) [µM] | SMILES | ring closure, yield of all isomers [1] [%] | isozyme selectivity (protein kinase C) | IC50 (PKC eta) [µM] | IC50 (PKC gamma) [µM] |
| --- | --- | --- | --- | --- | --- | --- | --- | --- | --- | --- | --- |
| > 100 | > 100 | > 100 | 31 | 0.3 | 0.4 | > 100 | O=C(NCC1CCCn2cc(c3ccccc32)C2=C(C(=O)NC2=O)c2cn(c3ccccc23)CC1)OCc1ccccc1 (stereo not drawn) [Example 39] |  |  |  |  |
| > 100 | > 100 | 39 | 3 | 0.1 | 0.1 | > 125 | NC1CCCn2cc(c3ccccc32)C2=C(C(=O)NC2=O)c2cn(c3ccccc23)CCC1 [Example 45] |  |  |  |  |
| > 100 | > 100 | 63 | 3 | 0.04 | 0.04 | > 100 | CC(=O)NC1CCCn2cc(c3ccccc32)C2=C(C(=O)NC2=O)c2cn(c3ccccc23)CCC1 [Example 46] |  |  |  |  |
| > 100 | > 100 | 70 | 2 | 0.06 | 0.07 | > 125 | O=C1NC(=O)C2=C1c1cn(c3ccccc13)CCCC(NCc1ccccc1)CCCn1cc2c2ccccc21 [Example 47] |  |  |  |  |
| > 100 | > 100 | > 100 | 10 | 0.4 | 0.6 | > 100 | O=C1CCCn2cc(c3ccccc32)C2=C(C(=O)NC2=O)c2cn(c3ccccc23)CCC1 [Example 49] |  |  |  |  |
